The source made the active and inactive calls. Cut-off read from the data, not from the text of the source, for most assays here: actives have a measured EC50 and inactives only a lower limit.
Key:
[1] = A Cell Based Secondary Assay To Explore Cytotoxicity of Compounds that Sensitize Mycobacterium Tuberculosis to Beta-Lactam Antibiotics.; format: functional
[2] = target: Cytochrome P450 3A4 (Homo sapiens, UniProt P08684); settings: Potency;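 note: confirmatory qHTS run detecting inhibitors and substrates of CYP3A4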
Cytochrome P450 3A4, sequence (P08684 whole entry): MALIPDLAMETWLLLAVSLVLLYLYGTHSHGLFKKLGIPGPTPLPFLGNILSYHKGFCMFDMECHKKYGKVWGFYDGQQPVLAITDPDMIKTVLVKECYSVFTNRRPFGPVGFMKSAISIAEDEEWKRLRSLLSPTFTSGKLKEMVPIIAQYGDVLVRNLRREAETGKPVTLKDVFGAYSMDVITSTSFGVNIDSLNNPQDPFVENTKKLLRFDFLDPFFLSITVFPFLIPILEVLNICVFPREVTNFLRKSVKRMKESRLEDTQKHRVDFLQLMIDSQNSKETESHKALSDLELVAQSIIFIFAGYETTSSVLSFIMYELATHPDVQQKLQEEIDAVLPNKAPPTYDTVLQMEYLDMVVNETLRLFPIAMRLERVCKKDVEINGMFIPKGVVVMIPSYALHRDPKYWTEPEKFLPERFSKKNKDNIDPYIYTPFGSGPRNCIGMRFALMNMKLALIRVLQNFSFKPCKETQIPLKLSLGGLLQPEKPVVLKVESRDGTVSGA

[3] = cytotoxicity in HEK-293T cells, dose response, cytotoxicity control for BCR NF-kB inhibitor project, luminescence, B-cell screen hits (AID 489021); format: functional, cell-based;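 note: HEK-293T cells carrying an NF-kB luciferase reporter; cells exposed to compound for about 14 hours before viability readout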
[4] = tested on: BJ; test: cytotoxicity toward BJ-TERT fibroblasts, dose response, cell-based, RAS-independent, luminescence (AID 1933); format: functional; settings: Homo sapiens
[5] = tested on: BJ; test: cells; format: functional, cell-based; settings: Homo sapiens
[6] = inhibitors of firefly luciferase expression or activity, dose response, H4 neuroglioma cells, luminescence (AID 1990); format: functional, cell-based
[7] = Luminescence Cell-Based Dose Response HTS to Identify Inhibitors of 5'UTR Stem-Loop Driven Prion Protein mRNA Translation in H4 Neuroglioblastoma Cells. [Related pubchem assays: 1827 (Project Summary), 1813 (Primary HTS)]; format: functional
[8] = inhibitors of SNCA 5'UTR-driven translation, confirmation, luminescence, H4 neuroglioblastoma cells, dose confirmation (AID 2454); format: functional, cell-based;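 note: H4 neuroglioblastoma cells carrying an alpha-synuclein 5'UTR luciferase reporter; potency for inhibition of the luciferase signal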
[9] = HepG2 cell cytotoxicity, dose response, cytotoxicity control for Shn3 inhibitor project, CellTiter-Glo, cherry-picked (AID 624134); format: functional, cell-based
[10] = reduction of Shn3 3'UTR firefly luciferase signal, dose response, Schnurri-3 inhibitor project, cell-based, Clone20 osteoblasts, cherry-pick, set 2 (AID 720490); format: functional;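 note: actives lower the luminescence signal as inhibitors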
[11] = inhibitors of SNCA 5'UTR-driven reporter translation, confirmation, H4 neuroglioma cells, luminescence (AID 1988); format: functional, cell-based
[12] = cells; format: functional, cell-based
[13] = Shn3 3'UTR reporter inhibitors, dose response, cell-based, Clone20 osteoblasts, firefly luciferase, cherry-picked (AID 624132); format: functional;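 note: firefly luciferase luminescence from reporter carrying the Shn3 3'UTR in osteoblasts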
[14] = tested on: BJ; test: cytotoxicity toward BJ-TERT-LT-ST fibroblasts, dose response, cell-based, RAS-independent, luminescence (AID 1935); format: functional; settings: Homo sapiens;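 note: BJ fibroblasts immortalized with TERT plus LT and ST oncogenes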
[15] = cytotoxicity toward DRD oncogenic fibroblasts, dose response, cell-based, non-viral oncogenic, luminescence (AID 1934); format: functional; settings: Homo sapiens
[16] = luciferase reporter signal reduction – luminescence, H4-C neuroglioblastoma cells, dose response (AID 2458); format: functional, cell-based;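 note: H4 neuroglioblastoma cells stably carrying a luciferase reporter gene fusion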

Question: Which CC50 [1] does the source give for CCOc1cc(N2CCOCC2)c(OCC)cc1NC(=O)COc1cccc(CC)c1 here?
Answer: > 40 µM (active)

Question: With c1ccc(N2CCN(Cc3nc4ccccc4[nH]3)CC2)nc1 as the molecule, how does the AC50 [2] read?
Answer: 25.1 µM (inconclusive)

Question: For COc1ccc(C=C(C(C)=O)C(C)=O)cc1OC, which IC50 [3] is on record?
Answer: > 80 µM (inactive)

Question: With COc1ccc(OCc2cccc(C(=O)O)c2)cc1 as the molecule, how does the EC50 [4] read?
Answer: 18.8 µM (active)

Question: And the EC50 [5]?
Answer: 8.86 µM (active)

Question: What about the EC50 [6] of the same molecule?
Answer: 0.305 µM (active)

Question: What about the EC50 [7] of the same molecule?
Answer: 0.121 µM (active)

Question: What about the EC50 [8] of the same molecule?
Answer: 0.267 µM (active)

Question: And the AC50 [9]?
Answer: > 70 µM (inactive)

Question: What about the AC50 [10] of the same molecule?
Answer: 2.01 µM (active)

Question: And the EC50 [11]?
Answer: < 0.1 µM (active)

Question: What about the EC50 [12] of the same molecule?
Answer: 0.307 µM (active)

Question: What about the AC50 [13] of the same molecule?
Answer: 1.39 µM (active)

Question: What about the EC50 [14] of the same molecule?
Answer: > 150 µM (inconclusive)

Question: What about the EC50 [15] of the same molecule?
Answer: 9.09 µM (inconclusive)

Question: And the EC50 [16]?
Answer: 0.26 µM (active)

Question: Which IC50 [3] does the source give for COc1ccc(N=C(S)NCc2ccccc2)c(OC)c1 here?
Answer: > 80 µM (inactive)

Question: With Nc1cc(=O)[nH]c(=O)n1CC1CC1 as the molecule, how does the AC50 [2] read?
Answer: 3.98 µM (inconclusive)

Question: For C[C@H]1[C@H](C)CC[C@]2(C(=O)O)CC[C@]3(C)C(=CCC4[C@@]5(C)C[C@@H](O)[C@H](O)[C@@](C)(CO)[C@@H]5CC[C@]43C)[C@H]12 (some centres undefined), which AC50 [2] is on record?
Answer: 15.8 µM (inconclusive)

From ChEMBL document CHEMBL1201862, “PubChem BioAssay data set” (2004)
